Assay: Thermostability test of crystal forms
Type: physicochemical
Conditions: solid sample placed at 80° C. for 1 week; change of crystal form detected
Description: 3. Thermostability Test The samples of crystal form D, crystal form H and crystal form G were each placed for 1 week at 80° C., and subsequently the changes of the crystal form were detected.

Row | SMILES | The crystal form after test
1 | CC(C)=CCC[C@](C)(O[C@@H]1O[C@H](CO)[C@@H](O)[C@H](O)[C@H]1O)[C@H]1CC[C@]2(C)[C@@H]1[C@H](O)C[C@@H]1[C@@]3(C)CC[C@H](O)C(C)(C)[C@@H]3CC[C@]12C [crystal form D, ginsenoside C-K] | no change was observed
2 | CC(C)=CCC[C@](C)(O[C@@H]1O[C@H](CO)[C@@H](O)[C@H](O)[C@H]1O)[C@H]1CC[C@]2(C)[C@@H]1[C@H](O)C[C@@H]1[C@@]3(C)CC[C@H](O)C(C)(C)[C@@H]3CC[C@]12C [crystal form G, ginsenoside C-K] | changed to crystal form D
3 | CC(C)=CCC[C@](C)(O[C@@H]1O[C@H](CO)[C@@H](O)[C@H](O)[C@H]1O)[C@H]1CC[C@]2(C)[C@@H]1[C@H](O)C[C@@H]1[C@@]3(C)CC[C@H](O)C(C)(C)[C@@H]3CC[C@]12C [crystal form H, ginsenoside C-K] | no change was observed

Reference: patent publication US9643992B2, “Two crystal forms of ginsenoside C-K and method for preparing same” (Zhejiang Hisun Pharmaceutical Co., Ltd., priority 2012, dated 2017)
